“And” between values parts separate entries of the source, which are not always exact repeats. Identical values can stand only once. Counter-ions that a name gives are not always drawn. Like-named read-outs stand apart in the source and are kept apart here.
Tests used:
[1] = target: T1, HsHCN4 (Homo sapiens, UniProt Q9Y3Q4); assay: Inhibition of HCN4 currents in Xenopus oocytes, two-electrode voltage clamp; type: cell-based; settings: holding −30 mV, hyperpolarized to −120 mV for 2 s, room temperature
T1 construct: host or cells: Xenopus laevis oocytes injected with cRNA (pGEMHE vector)
T1 sequence (Q9Y3Q4 1-1203): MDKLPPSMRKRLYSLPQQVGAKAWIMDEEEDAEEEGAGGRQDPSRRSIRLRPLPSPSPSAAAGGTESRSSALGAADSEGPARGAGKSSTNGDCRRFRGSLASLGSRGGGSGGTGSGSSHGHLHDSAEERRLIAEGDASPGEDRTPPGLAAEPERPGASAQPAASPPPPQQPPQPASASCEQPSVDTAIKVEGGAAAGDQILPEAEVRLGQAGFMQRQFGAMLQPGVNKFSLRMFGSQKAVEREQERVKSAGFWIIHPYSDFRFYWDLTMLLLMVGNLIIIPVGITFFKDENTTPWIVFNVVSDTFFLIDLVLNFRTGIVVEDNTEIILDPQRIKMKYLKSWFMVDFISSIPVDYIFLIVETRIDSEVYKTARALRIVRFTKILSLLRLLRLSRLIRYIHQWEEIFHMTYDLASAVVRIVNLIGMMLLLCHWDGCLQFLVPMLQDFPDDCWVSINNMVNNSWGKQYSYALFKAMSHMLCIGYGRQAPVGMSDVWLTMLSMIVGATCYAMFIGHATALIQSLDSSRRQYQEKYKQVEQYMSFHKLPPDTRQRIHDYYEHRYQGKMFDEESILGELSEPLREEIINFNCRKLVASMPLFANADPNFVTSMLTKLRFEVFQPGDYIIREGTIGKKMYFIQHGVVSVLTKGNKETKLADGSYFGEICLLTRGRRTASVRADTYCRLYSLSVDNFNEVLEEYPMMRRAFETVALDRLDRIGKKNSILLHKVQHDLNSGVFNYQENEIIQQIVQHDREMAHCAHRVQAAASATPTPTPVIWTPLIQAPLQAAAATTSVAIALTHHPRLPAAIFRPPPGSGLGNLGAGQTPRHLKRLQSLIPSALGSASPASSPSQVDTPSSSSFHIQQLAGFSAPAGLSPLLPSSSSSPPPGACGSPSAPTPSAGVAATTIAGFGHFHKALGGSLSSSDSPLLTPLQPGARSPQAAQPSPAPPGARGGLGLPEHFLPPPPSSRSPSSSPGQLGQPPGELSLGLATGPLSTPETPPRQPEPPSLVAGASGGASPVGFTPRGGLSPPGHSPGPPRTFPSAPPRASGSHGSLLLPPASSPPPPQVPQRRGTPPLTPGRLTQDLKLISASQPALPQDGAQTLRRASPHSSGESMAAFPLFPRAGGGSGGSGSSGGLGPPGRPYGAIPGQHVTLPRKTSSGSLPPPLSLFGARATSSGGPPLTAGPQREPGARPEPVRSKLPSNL

[2] = target: T2, DrHCN4L (Danio rerio, UniProt A0A8N7TEJ3); assay: as above; type: cell-based, zebrafish (Danio rerio); settings: holding −30 mV, hyperpolarized to −120 mV for 2 s, room temperature
T2 sequence (A0A8N7TEJ3 1-1188): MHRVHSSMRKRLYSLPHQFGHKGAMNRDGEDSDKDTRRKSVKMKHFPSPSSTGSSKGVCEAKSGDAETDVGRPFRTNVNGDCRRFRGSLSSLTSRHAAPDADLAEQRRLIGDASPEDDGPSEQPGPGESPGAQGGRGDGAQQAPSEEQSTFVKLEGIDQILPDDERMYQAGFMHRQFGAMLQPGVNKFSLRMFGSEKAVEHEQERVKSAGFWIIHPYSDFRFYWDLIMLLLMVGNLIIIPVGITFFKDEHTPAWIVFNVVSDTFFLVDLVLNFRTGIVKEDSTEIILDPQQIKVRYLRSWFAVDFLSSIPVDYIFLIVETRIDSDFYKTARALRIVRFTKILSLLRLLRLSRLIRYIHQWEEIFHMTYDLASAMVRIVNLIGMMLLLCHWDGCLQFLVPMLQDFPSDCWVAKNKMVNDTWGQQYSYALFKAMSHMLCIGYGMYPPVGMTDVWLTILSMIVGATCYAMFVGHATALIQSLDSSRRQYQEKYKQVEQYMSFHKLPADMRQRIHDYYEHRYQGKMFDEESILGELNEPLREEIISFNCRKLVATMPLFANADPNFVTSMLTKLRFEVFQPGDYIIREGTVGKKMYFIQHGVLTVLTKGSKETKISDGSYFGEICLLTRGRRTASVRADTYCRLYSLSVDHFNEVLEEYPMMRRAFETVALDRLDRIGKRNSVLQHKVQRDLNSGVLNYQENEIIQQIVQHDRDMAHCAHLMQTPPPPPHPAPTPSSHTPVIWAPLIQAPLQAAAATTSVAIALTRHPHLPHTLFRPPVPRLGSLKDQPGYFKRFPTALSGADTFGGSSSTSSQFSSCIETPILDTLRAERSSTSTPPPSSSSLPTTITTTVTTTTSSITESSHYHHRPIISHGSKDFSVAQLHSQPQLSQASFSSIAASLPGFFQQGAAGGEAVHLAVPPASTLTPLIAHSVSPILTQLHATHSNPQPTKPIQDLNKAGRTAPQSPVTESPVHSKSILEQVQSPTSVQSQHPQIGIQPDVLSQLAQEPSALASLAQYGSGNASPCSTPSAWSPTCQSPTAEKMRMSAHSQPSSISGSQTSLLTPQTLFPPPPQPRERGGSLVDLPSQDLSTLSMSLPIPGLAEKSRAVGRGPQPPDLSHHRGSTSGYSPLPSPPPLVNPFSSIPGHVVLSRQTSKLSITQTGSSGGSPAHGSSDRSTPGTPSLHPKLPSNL

[3] = system: developing zebrafish embryos; assay: HCN inhibitors in egg water: heart rate of developing zebrafish embryos; settings: for Effect on heart rate, concentration dependence: 10 μM, 100 μM, 24 h and 48 h; for Effect on heart rate, concentration dependence / Heart rate recovery after washout: 1 mM; for Heart rate recovery after washout: 6 h after washout; for Pericardial edema in inhibitor-treated zebrafish: zebrafish embryos treated with inhibitor
[4] = DrHCN4L in Xenopus oocytes, read-out: IC50
[5] = 0 h (24 hpf), before application of inhibitor, 10 μM group
[6] = 0 h (24 hpf), before application of inhibitor, 100 μM group
[7] = 0 h (24 hpf), before application of inhibitor, 1 mM group
[8] = 24 h after application, 10 μM in egg water
[9] = 24 h after application, 100 μM in egg water
[10] = 24 h after application, 1 mM in egg water
[11] = 48 h after application, 10 μM in egg water
[12] = 48 h after application, 100 μM in egg water
[13] = 48 h after application, 1 mM in egg water
[14] = Washout, 6 h in inhibitor-free water after 48 h, 10 μM group
[15] = Washout, 6 h in inhibitor-free water after 48 h, 100 μM group
[16] = Washout, 6 h in inhibitor-free water after 48 h, 1 mM group

| Structure (SMILES) | IC50 [1] | IC50 [2, 4] [µM] | Heart rate [3, 5] [bpm] | Heart rate [3, 6] [bpm] | Heart rate [3, 7] [bpm] | Effect on heart rate, concentration dependence [3] | Heart rate recovery after washout [3] | Heart rate [3, 8] [bpm] | Heart rate [3, 9] [bpm] | Heart rate [3, 10] [bpm] | Heart rate [3, 11] [bpm] | Heart rate [3, 12] [bpm] | Heart rate [3, 13] [bpm] | Heart rate [3, 14] [bpm] | Heart rate [3, 15] [bpm] | Heart rate [3, 16] [bpm] | Pericardial edema in inhibitor-treated zebrafish [3] | IC50 ([1]; listed as Cs^+) [µM] | IC50 ([2]; DrHCN4L in Xenopus oocytes, listed as Cs^+, read-out: IC50) [µM] | IC50 ([2]; IC50, DrHCN4L in Xenopus oocytes) |
| --- | --- | --- | --- | --- | --- | --- | --- | --- | --- | --- | --- | --- | --- | --- | --- | --- | --- | --- | --- | --- |
| CCN(c1ccccc1)c1cc(=NC)n(C)c(C)n1.Cl [ZD7288] | 167 ± 56 µM | 596 ± 383 | 81 ± 4 | 80 ± 3 | 84 ± 3 | significantly lowered heart rate, except for a concentration of 10 μM at 24 h | recovered | 150 ± 3 | 129 ± 1 | 113 ± 3 | 142 ± 2 | 97 ± 4 | 94 ± 2 | 160 ± 3 | 140 ± 4 | 115 ± 2 | no pericardial edema was observed | – | – | – |
| [Cl-].[Cs+] [Cesium ion, Cesium chloride] | 68.8 ± 14 µM | 48.3 ± 6.9 | – | – | 89 ± 1 | – | – | – | – | 131 ± 2 | – | – | 133 ± 2 | – | – | 139 ± 3 | – | 69 ± 14 | 48 ± 7 | – |
| COc1cc2c(cc1OC)CC(=O)N(CCCN(C)C[C@H]1Cc3cc(OC)c(OC)cc31)CC2 [Ivabradine, ivabradine hydrochloride] | 38 µM and 37.6 µM | – | 81 ± 3 | 81 ± 2 | 85 ± 2 | significantly suppressed heart rate at all concentrations and time points | recovered | 134 ± 4 | 124 ± 5 | 98 ± 2 | 133 ± 2 | 101 ± 2 | 72 ± 2 | 149 ± 3 | 133 ± 3 | 115 ± 3 | no pericardial edema was observed | – | – | 10 µM and 10.4 µM |

From PMC9281569, “Two HCN4 Channels Play Functional Roles in the Zebrafish Heart” (Frontiers in Physiology, 2022)
